The record followed here is patent US11672251B2, “Herbicidally active pyridyl-/pyrimidyl-pyrimidine derivatives” (Syngenta Participations AG, priority 2017, dated 2023).

One assay relates to Triticum aestivium (TRZAW). As to the kind of experiment: B2 post-emergence herbicidal activity. The settings on record: Test B2b; post-emergence (sprayed after 8 days cultivation); rate 1000 g/ha; evaluated after 13 days; scale 5=total damage to plant, 0=no damage to plant. In kind it is in vivo. As to the method: (§1) Seeds of a variety of test species were sown in standard soil in pots: Triticum aestivium (TRZAW), Avena fatua (AVEFA), Alopecurus myosuroides (ALOMY), Echinochloa crus-galli (ECHCG), Lolium perenne (LOLPE), Zea Mays (ZEAMX), Abutilon theophrasti (ABUTH), Amaranthus retroflexus (AMARE) and Setaria faberi (SETFA). After 8 days cultivation (post-emergence) under controlled conditions in a glasshouse (at 24/16° C., day/night; 14 hours light; 65% humidity), the plants were sprayed with an aqueous spray solution derived from the formulation of the technical active ingredient in acetone/water (50:50) solution containing 0.5% Tween 20 (polyoxyethelyene sorbitan monolaurate, CAS RN 9005-64-5). The test plants were then grown in a glasshouse under controlled conditions (at 24/16° C., day/night; 14 hours light; 65% humidity) and watered twice daily. After 13 days, the test was evaluated (5=total damage to plant; 0=no damage to plant).
In the case of `CCNc1cnc(-c2cncc(N)c2)nc1C(F)(F)F` [Compound D11], the “Control after post-emergence application, damage score: TRAZW” value worked out at 1.
Still for that read-out and setting: for `CCN(CC)c1cnc(-c2cncc(F)c2)nc1C(F)(F)F` [Compound D12] the value was 1; for `CCCNc1cnc(-c2cncc(F)c2)nc1C(F)(F)F` [Compound D13, 2-(5-fluoro-3-pyridyl)-N-propyl-4-(trifluoromethyl)pyrimidin-5-amine], 0.

The subject of the next assay is Echinochloa crus-galli (ECHCG). Briefly: B2 post-emergence herbicidal activity. The format is in vivo. The settings on record: Test B2b; post-emergence (sprayed after 8 days cultivation); rate 1000 g/ha; evaluated after 13 days; scale 5=total damage to plant, 0=no damage to plant. As to the method:
as §1
For `CCNc1cnc(-c2cncc(N)c2)nc1C(F)(F)F` [Compound D11], the “Control after post-emergence application, damage score: ECHCG” value is reported as 5.
As to `CCN(CC)c1cnc(-c2cncc(F)c2)nc1C(F)(F)F` [Compound D12], the “Control after post-emergence application, damage score: ECHCG” value was determined as 5.
Still for that read-out and setting: the figure for `CCCNc1cnc(-c2cncc(F)c2)nc1C(F)(F)F` [Compound D13, 2-(5-fluoro-3-pyridyl)-N-propyl-4-(trifluoromethyl)pyrimidin-5-amine] is 4.

Another assay deals with Avena fatua (AVEFA). As to the kind of experiment: B2 post-emergence herbicidal activity. The format is in vivo. The conditions noted are these: Test B2b; post-emergence (sprayed after 8 days cultivation); rate 1000 g/ha; evaluated after 13 days; scale 5=total damage to plant, 0=no damage to plant. As to the method:
as §1
`CCNc1cnc(-c2cncc(N)c2)nc1C(F)(F)F` [Compound D11]: the “Control after post-emergence application, damage score: AVEFA” value is recorded as 2.
The same measure, in the same setting: the figure for `CCN(CC)c1cnc(-c2cncc(F)c2)nc1C(F)(F)F` [Compound D12] is 3; for `CCCNc1cnc(-c2cncc(F)c2)nc1C(F)(F)F` [Compound D13, 2-(5-fluoro-3-pyridyl)-N-propyl-4-(trifluoromethyl)pyrimidin-5-amine] it is 3.

A further assay has as its system Alopecurus myosuroides (ALOMY). Briefly: B2 post-emergence herbicidal activity. The conditions noted are these: Test B2b; post-emergence (sprayed after 8 days cultivation); rate 1000 g/ha; evaluated after 13 days; scale 5=total damage to plant, 0=no damage to plant. The format is in vivo. As to the method:
as §1
In the case of `CCNc1cnc(-c2cncc(N)c2)nc1C(F)(F)F` [Compound D11], the “Control after post-emergence application, damage score: ALOMY” value came out at 1.
As for `CCN(CC)c1cnc(-c2cncc(F)c2)nc1C(F)(F)F` [Compound D12], the “Control after post-emergence application, damage score: ALOMY” value is 0.
Regarding `CCCNc1cnc(-c2cncc(F)c2)nc1C(F)(F)F` [Compound D13, 2-(5-fluoro-3-pyridyl)-N-propyl-4-(trifluoromethyl)pyrimidin-5-amine], the “Control after post-emergence application, damage score: ALOMY” value stood at 0.

Another assay concerns Lolium perenne (LOLPE). Briefly: B2 post-emergence herbicidal activity. The format is in vivo. The conditions noted are these: Test B2b; post-emergence (sprayed after 8 days cultivation); rate 1000 g/ha; evaluated after 13 days; scale 5=total damage to plant, 0=no damage to plant. As to the method:
as §1
As to `CCNc1cnc(-c2cncc(N)c2)nc1C(F)(F)F` [Compound D11], the “Control after post-emergence application, damage score: LOLPE” value is given as 1.
Same read-out and setting: for `CCN(CC)c1cnc(-c2cncc(F)c2)nc1C(F)(F)F` [Compound D12] the value was 2.
Still for that read-out and setting: for `CCCNc1cnc(-c2cncc(F)c2)nc1C(F)(F)F` [Compound D13, 2-(5-fluoro-3-pyridyl)-N-propyl-4-(trifluoromethyl)pyrimidin-5-amine] the value was 1.

The test system of another assay is Setaria faberi (SETFA). As to the kind of experiment: B2 post-emergence herbicidal activity. The format is in vivo. The conditions noted are these: Test B2b; post-emergence (sprayed after 8 days cultivation); rate 1000 g/ha; evaluated after 13 days; scale 5=total damage to plant, 0=no damage to plant. As to the method:
as §1
Regarding `CCNc1cnc(-c2cncc(N)c2)nc1C(F)(F)F` [Compound D11], the “Control after post-emergence application, damage score: SETFA” value turned out to be 5.
On the same count and under the same terms, the figure for `CCN(CC)c1cnc(-c2cncc(F)c2)nc1C(F)(F)F` [Compound D12] is 5.
On the same count and under the same terms, for `CCCNc1cnc(-c2cncc(F)c2)nc1C(F)(F)F` [Compound D13, 2-(5-fluoro-3-pyridyl)-N-propyl-4-(trifluoromethyl)pyrimidin-5-amine] the value was 4.

Another assay has as its system Triticum aestivium (TRZAW). As to the kind of experiment: B1 pre-emergence herbicidal activity. In kind it is in vivo. The settings on record: Test 1b, rate 1000 g/ha, evaluated after 13 days, scale 5=total damage to plant, 0=no damage to plant. As to the method: as §1, with “After” for “After 8 days”, “for one day (pre-emergence)” for “(post-emergence)”
Take `CCNc1cnc(-c2cncc(N)c2)nc1C(F)(F)F` [Compound D11]: the “Control after pre-emergence application, damage score: TRAZW” value is recorded as 0.
On to `CCN(CC)c1cnc(-c2cncc(F)c2)nc1C(F)(F)F` [Compound D12], for which the “Control after pre-emergence application, damage score: TRAZW” value is recorded as 0.
On the same count and under the same terms, for `CCCNc1cnc(-c2cncc(F)c2)nc1C(F)(F)F` [Compound D13, 2-(5-fluoro-3-pyridyl)-N-propyl-4-(trifluoromethyl)pyrimidin-5-amine] the value was 1.

For another assay, the system named is Echinochloa crus-galli (ECHCG). Briefly: B1 pre-emergence herbicidal activity. The format is in vivo. The conditions noted are these: Test 1b, rate 1000 g/ha, evaluated after 13 days, scale 5=total damage to plant, 0=no damage to plant. As to the method: as §1, with “After” for “After 8 days”, “for one day (pre-emergence)” for “(post-emergence)”
For the compound `CCNc1cnc(-c2cncc(N)c2)nc1C(F)(F)F` [Compound D11], the “Control after pre-emergence application, damage score: ECHCG” value is 3.
Still for that read-out and setting: for `CCN(CC)c1cnc(-c2cncc(F)c2)nc1C(F)(F)F` [Compound D12] the value was 1; for `CCCNc1cnc(-c2cncc(F)c2)nc1C(F)(F)F` [Compound D13, 2-(5-fluoro-3-pyridyl)-N-propyl-4-(trifluoromethyl)pyrimidin-5-amine], 1.

In a further assay the test system is Avena fatua (AVEFA). As to the kind of experiment: B1 pre-emergence herbicidal activity. The format is in vivo. The settings on record: Test 1b, rate 1000 g/ha, evaluated after 13 days, scale 5=total damage to plant, 0=no damage to plant. How it is done:
as §1, with “After” for “After 8 days”, “for one day (pre-emergence)” for “(post-emergence)”
For `CCNc1cnc(-c2cncc(N)c2)nc1C(F)(F)F` [Compound D11], the “Control after pre-emergence application, damage score: AVEFA” value stood at 0.
As for `CCN(CC)c1cnc(-c2cncc(F)c2)nc1C(F)(F)F` [Compound D12], the “Control after pre-emergence application, damage score: AVEFA” value is recorded as 0.
On the same count and under the same terms, for `CCCNc1cnc(-c2cncc(F)c2)nc1C(F)(F)F` [Compound D13, 2-(5-fluoro-3-pyridyl)-N-propyl-4-(trifluoromethyl)pyrimidin-5-amine] the value was 0.

A further assay concerns Alopecurus myosuroides (ALOMY). Briefly: B1 pre-emergence herbicidal activity. The format is in vivo. The conditions noted are these: Test 1b, rate 1000 g/ha, evaluated after 13 days, scale 5=total damage to plant, 0=no damage to plant. As to the method:
as §1, with “After” for “After 8 days”, “for one day (pre-emergence)” for “(post-emergence)”
As to `CCNc1cnc(-c2cncc(N)c2)nc1C(F)(F)F` [Compound D11], the “Control after pre-emergence application, damage score: ALOMY” value was determined as 0.
On the same count and under the same terms, the figure for `CCN(CC)c1cnc(-c2cncc(F)c2)nc1C(F)(F)F` [Compound D12] is 0.
Take `CCCNc1cnc(-c2cncc(F)c2)nc1C(F)(F)F` [Compound D13, 2-(5-fluoro-3-pyridyl)-N-propyl-4-(trifluoromethyl)pyrimidin-5-amine]: the “Control after pre-emergence application, damage score: ALOMY” value worked out at 0.

A further assay concerns Lolium perenne (LOLPE). As to the kind of experiment: B1 pre-emergence herbicidal activity. The settings on record: Test 1b, rate 1000 g/ha, evaluated after 13 days, scale 5=total damage to plant, 0=no damage to plant. In kind it is in vivo. As to the method: as §1, with “After” for “After 8 days”, “for one day (pre-emergence)” for “(post-emergence)”
For the compound `CCNc1cnc(-c2cncc(N)c2)nc1C(F)(F)F` [Compound D11], the “Control after pre-emergence application, damage score: LOLPE” value amounted to 0.
With `CCN(CC)c1cnc(-c2cncc(F)c2)nc1C(F)(F)F` [Compound D12], the “Control after pre-emergence application, damage score: LOLPE” value was determined as 0.
For `CCCNc1cnc(-c2cncc(F)c2)nc1C(F)(F)F` [Compound D13, 2-(5-fluoro-3-pyridyl)-N-propyl-4-(trifluoromethyl)pyrimidin-5-amine], the “Control after pre-emergence application, damage score: LOLPE” value is given as 1.

The test system of another assay is Setaria faberi (SETFA). Briefly: B1 pre-emergence herbicidal activity. In kind it is in vivo. The conditions noted are these: Test 1b, rate 1000 g/ha, evaluated after 13 days, scale 5=total damage to plant, 0=no damage to plant. How it is done: as §1, with “After” for “After 8 days”, “for one day (pre-emergence)” for “(post-emergence)”
With `CCNc1cnc(-c2cncc(N)c2)nc1C(F)(F)F` [Compound D11], the “Control after pre-emergence application, damage score: SETFA” value is 5.
For the compound `CCN(CC)c1cnc(-c2cncc(F)c2)nc1C(F)(F)F` [Compound D12], the “Control after pre-emergence application, damage score: SETFA” value is 5.
With `CCCNc1cnc(-c2cncc(F)c2)nc1C(F)(F)F` [Compound D13, 2-(5-fluoro-3-pyridyl)-N-propyl-4-(trifluoromethyl)pyrimidin-5-amine], the “Control after pre-emergence application, damage score: SETFA” value is 2.
